Measurements reported in patent US20210254056A1, “IDENTIFICATION AND TARGETED MODULATION OF GENE SIGNALING NETWORKS” (CAMP4 THERAPEUTICS CORPORATION, priority 2017, published 2021).
Where a name gives a salt, the structure may show the parent alone.

Tested on: hepatocytes
Experiment: RNA-seq of hepatocytes treated with Phase III failure compounds
Details: for Number (#) of genes having significantly changed expression: Phase III failure compounds, significance: FPKM≥0.5, log 2(fold-change)≥1, q-value≥0.05 (so in the source); for significant changes in gene expression: RNA-seq of Table 36, FPKM≥0.5, log 2(fold-change)≥1, q-value≤0.05; for significant modulation of expression of any of the genes analyzed: p≤0.05
Description: RNA-seq was performed to determine the effects of the compounds on hepatocytes.
Significance was determined by the criteria of FPKM≥0.5, a log 2(fold-change)≥1, and a […].

In the case of `C=CC(=O)Nc1cccc(Nc2nc(Nc3ccc(N4CCN(C(C)=O)CC4)cc3OC)ncc2C(F)(F)F)c1` [CO-1686 (Rociletinib), Rociletinib], the “Number (#) of genes having significantly changed expression” value (RNA-seq, hepatocytes) is reported as 391, the “B2M expression, RNA-seq result” value (gene B2M, hepatocytes) is reported as −0.08 and the “B9D2 expression, RNA-seq result” value (gene B9D2, hepatocytes) is reported as −0.29. For the same molecule, the “BAAT expression, RNA-seq result” value (gene BAAT, hepatocytes) was 0.22, the “BBOX1 expression, RNA-seq result” value (gene BBOX1, hepatocytes) was −0.45 and the “BBS10 expression, RNA-seq result” value (gene BBS10, hepatocytes) was −0.28. For the same molecule, the “BCHE expression, RNA-seq result” value (gene BCHE, hepatocytes) was −0.79, the “BCKDHB expression, RNA-seq result” value (gene BCKDHB, hepatocytes) was −0.38 and the “BCKDK expression, RNA-seq result” value (gene BCKDK, hepatocytes) was −0.45. For the same molecule, the “BCO1 expression, RNA-seq result” value (gene BCO1, hepatocytes) was −0.53, the “BCR expression, RNA-seq result” value (gene BCR, hepatocytes) was −0.26 and the “BLNK expression, RNA-seq result” value (gene BLNK, hepatocytes) was 0.75. The “BLOC1S3 expression, RNA-seq result” value (gene BLOC1S3, hepatocytes) was 0.76, the “BMPR1A expression, RNA-seq result” value (gene BMPR1A, hepatocytes) was 0.07 and the “BRAF expression, RNA-seq result” value (gene BRAF, hepatocytes) was 0.32. For the same molecule, the “BSCL2 expression, RNA-seq result” value (gene BSCL2, hepatocytes) was −0.58, the “BTD expression, RNA-seq result” value (gene BTD, hepatocytes) was 0.25 and the “C4A expression, RNA-seq result” value (gene C4A, hepatocytes) was 0.16. For the same molecule, the “C9 expression, RNA-seq result” value (gene C9, hepatocytes) was −0.21, the “C10orf10 expression, RNA-seq result” value (gene C10orf10, hepatocytes) was 0.81 and the “C10orf11 expression, RNA-seq result” value (gene C10orf11, hepatocytes) was 0.1. The “C15orf41 expression, RNA-seq result” value (gene C15orf41, hepatocytes) was 0.03, the “CA2 expression, RNA-seq result” value (gene CA2, hepatocytes) was 0.48 and the “CA5A expression, RNA-seq result” value (gene CA5A, hepatocytes) was −0.02. The “CA12 expression, RNA-seq result” value (gene CA12, hepatocytes) was 0.59, the “CAV1 expression, RNA-seq result” value (gene CAV1, hepatocytes) was −0.47 and the “CCND1 expression, RNA-seq result” value (gene CCND1, hepatocytes) was −2.24. The “CD46 expression, RNA-seq result” value (gene CD46, hepatocytes) was −0.02, the “CD81 expression, RNA-seq result” value (gene CD81, hepatocytes) was 0.02 and the “CD320 expression, RNA-seq result” value (gene CD320, hepatocytes) was −0.58. For the same molecule, the “CDAN1 expression, RNA-seq result” value (gene CDAN1, hepatocytes) was 0.02, the “CDH1 expression, RNA-seq result” value (gene CDH1, hepatocytes) was −0.25 and the “CEP19 expression, RNA-seq result” value (gene CEP19, hepatocytes) was −0.43. For the same molecule, the “CEP83 expression, RNA-seq result” value (gene CEP83, hepatocytes) was −0.13, the “CEP164 expression, RNA-seq result” value (gene CEP164, hepatocytes) was −0.32 and the “CEP290 expression, RNA-seq result” value (gene CEP290, hepatocytes) was −0.17. For the same molecule, the “CFB expression, RNA-seq result” value (gene CFB, hepatocytes) was 0.17, the “CFHR2 expression, RNA-seq result” value (gene CFHR2, hepatocytes) was −0.16 and the “CHRM3 expression, RNA-seq result” value (gene CHRM3, hepatocytes) was −0.14. For the same molecule, the “CIDEC expression, RNA-seq result” value (gene CIDEC, hepatocytes) was 0.24, the “CLDN1 expression, RNA-seq result” value (gene CLDN1, hepatocytes) was −0.71 and the “COG1 expression, RNA-seq result” value (gene COG1, hepatocytes) was −0.28.
With `Fc1ccc(C(OCCN2CCN(CCCc3ccccc3)CC2)c2ccc(F)cc2)cc1` [Vanoxerine] the “Number (#) of genes having significantly changed expression” value (RNA-seq, hepatocytes) was 17.
For `COC[C@@H](c1ccc(C(F)(F)F)cc1)N1CCN(C2(C)CCN(C(=O)c3c(C)ncnc3C)CC2)C[C@@H]1C` [Vicriviroc (maleate), Vicriviroc], the “significant changes in gene expression” value was “not observed to cause any significant changes in gene expression” and the “significant modulation of expression of any of the genes analyzed” value (shortened to “significant modulation”) (RNA-seq, hepatocytes) was “not observed to significantly modulate expression”.
With `C[C@H](Oc1ccc(S(C)(=O)=O)cc1C(=O)N1CCN(c2ncc(C(F)(F)F)cc2F)CC1)C(F)(F)F` [Bitopertin] the “significant changes in gene expression” value was “not observed to cause any significant changes in gene expression” and the “significant modulation” value (RNA-seq, hepatocytes) was “not observed to significantly modulate expression”.
In the case of `Cc1ccc2c(c1)c1c(n2CCc2ccc(C)nc2)CCN(C)C1` [Latrepirdine (dihydrochloride) (57), Latrepirdine], the “Number (#) of genes having significantly changed expression” value (RNA-seq, hepatocytes) is reported as 12, the “significant modulation” value (RNA-seq, hepatocytes) is reported as “not observed to significantly modulate expression” and the “effect on disease gene expression” value (RNA-seq, hepatocytes) is reported as “no effect on any disease gene”.
For `CCC(CC)[C@H](NC(C)=O)[C@@H]1[C@H](O)[C@@H](C(=O)O)C[C@H]1N=C(N)N` [Peramivir], the “Number (#) of genes having significantly changed expression” value (RNA-seq, hepatocytes) was 23.
